One experiment has as its system Pseudomonas aeruginosa. Put plainly: Assessment of bacterial resistance by serial exposure, MIC. The experiment is classed as cell-based. The conditions noted are these: serial passages (FIG. 2). The source says:
(§1) A central consideration in the development of novel antimicrobials is potential generation of bacterial resistance. […] See Pollard J E, et al. J. Antimicrob. Chemother. 2012, 67, 2665-2672 (describing experimental protocol).

Another experiment deals with Staphylococcus aureus. Described as above. The class given is cell-based. The conditions noted are these: after 30 serial passages.
Description: as §1

Experiment [1] deals with tobramycin-resistant P. aeruginosa strains. Put plainly: MIC against tobramycin resistant strains (cross-resistance). The experiment is classed as cell-based. The conditions noted are these: seven tobramycin resistant P. aeruginosa strains (FIG. 3). The source says: Tobramycin is commonly used in reducing the bacterial burden in the lungs of cystic fibrosis patients. However, resistance to tobramycin is often observed among P. aeruginosa isolates. Tobramycin resistance is typically achieved by acylation or phosphorylation of the primary amine groups in the antibiotic.
Similar studies can be conducted for other drug-resistant pathogenic strains following this standard experimental protocol.

The next experiment deals with P. aeruginosa. The experiment in a line: Drug combinations of CSAs and anti-pathogenic substances (synergy). The class given is cell-based. The procedure: Following the protocols outlined in Appl. Microbiol. Biotechnol., 2010 (September) pp. 251-63 and Chemotherapy, 2011 (November), Vol. 57, pp. 505-10, drug combinations involving CSAs and anti-pathogenic substances are performed.

For experiment [2], the system named is P. aeruginosa (PAO1). Put plainly: MIC against infection-model strain. The experiment is classed as cell-based.
In experiment [3] the test system is P. aeruginosa (PAO1). The experiment in a line: Animal model of lung infection, bacterial counts in lung tissue. The class given is in vivo, mice. The conditions noted are these: for elimination of the bacterial burden: 80 mg/kg via nebulization; for reduction in bacterial burden: 80 mg/kg via nebulization four hours after infection. The procedure: In vivo studies were designed to allow observation of both tolerance for CSAs and effectiveness of the antimicrobial in reducing bacterial burden. An infection model was used in which mice were inoculated with P. aeruginosa (PAO1) intra-nasally (10^5 CFU) to establish an infection. […] Two doses were used: 40 and 80 mg/kg. […] After 24 h, the mice were euthanized, and lung tissues were homogenized. Bacterial counts were determined by serial dilution, plating on nutrient agar, incubation, and colony counting. As a comparator, tobramycin was administered via the same route, and P. aeruginosa counts were determined.
(§2) IL-6 was measured from kidney tissue specimens.

The subject of the next experiment is IL-6. The experiment in a line: IL-6 levels in murine pneumonia model. The class given is in vivo, mice. The conditions noted are these: inhaled, 40 and 80 mg/kg; IL-6 measured from kidney tissue specimens (FIG. 5). As to the method: as §2
In experiment [4] the test system is inflammatory cells around bronchioles in lungs. The experiment in a line: Murine lung histology in pneumonia model. The class given is in vivo, mice. The conditions noted are these: 4 hours post challenge with Pseudomonas PA01. The procedure: In this experiment, mice were infected with 10^8 PA01 strain of Pseudomonas, representing a murine pneumonia model. […] The CSA treatment was administered 4 hours post challenge with Pseudomonas.

≈ marks a conversion by molar mass, not a printed value.

Broadly, the MIC is the smallest concentration in the dilution series that meets the test's criterion for growth inhibition. Lower therefore signals greater potency. With `CCCCCCCCNCCC[C@@H](C)[C@H]1CC[C@H]2[C@@H]3[C@H](OCCCN)C[C@@H]4C[C@H](OCCCN)CC[C@]4(C)[C@H]3C[C@H](OCCCN)[C@]12C` [CSA-13], the “MIC at which the rise appeared to level off” value against Pseudomonas aeruginosa was around 20 mg/L (≈ 29.5 µM). In addition, the “change in Minimum Inhibitory Concentration (MIC)” value with Staphylococcus aureus is listed as “no significant change”. Further, the “susceptibility of tobramycin resistant strains” value in experiment [1] is recorded as “all strains were comparably susceptible”. Moreover, the synergy result in the experiment with P. aeruginosa (combined with ciprofloxaxin) and in the experiment on P. aeruginosa (combined with tobramycin) was “Additional synergies were observed” throughout. Further, in the experiment on P. aeruginosa (in combination with colistin, against P. aeruginosa), the synergistic result stood at 54%. Further, the MIC in the experiment with P. aeruginosa (PAO1) [2] turned out to be 2.5 mg/L (≈ 3.69 µM). In addition, the “drop in bacterial counts” value with P. aeruginosa (PAO1) [3] (40 mg/kg via nebulization four hours after infection, lung counts after 24 h) was “two”. Besides, in the experiment with P. aeruginosa (PAO1) [3], the “elimination of the bacterial burden” value was determined as 99.99%. Besides, the “reduction in bacterial burden” value with P. aeruginosa (PAO1) [3] (lung counts after 24 h) was “greater than four”. Further, the Pseudomonas load entry in the experiment on P. aeruginosa (PAO1) [3] (inhaled, 40 and 80 mg/kg, murine pneumonia model (FIG. 5)) is “reduced”. The IL-6 levels result with IL-6 is “reduced”. Further, the “inflammatory cells in lung histology” value is “substantial reduction of inflammatory cells” in experiment [4] (40 mg/kg dose) and “even greater reduction in inflammatory cells” in experiment [4] (80 mg/kg dose).

For `CC[C@H]1OC(=O)[C@H](C)[C@@H](O[C@H]2C[C@@](C)(OC)[C@@H](O)[C@H](C)O2)[C@H](C)[C@@H](O[C@@H]2O[C@H](C)C[C@H](N(C)C)[C@H]2O)[C@](C)(O)C[C@@H](C)C(=O)[C@H](C)[C@@H](O)[C@]1(C)O` [erythromycin, reference compound], the “reduction of the MIC of erythromycin” value in the experiment with P. aeruginosa (CSA-13 administered with erythromycin) was 92%.

Take `NC[C@H]1O[C@H](O[C@H]2[C@H](O)[C@@H](O[C@H]3O[C@H](CO)[C@@H](O)[C@H](N)[C@H]3O)[C@H](N)C[C@@H]2N)[C@H](N)C[C@@H]1O` [tobramycin, reference compound]: in experiment [1], the “susceptibility of tobramycin resistant strains” value was “varied significantly”. The “elimination of the bacterial burden” value in the experiment with P. aeruginosa (PAO1) [3] came out at 99.99%. In addition, the “reduction in bacterial burden” value with P. aeruginosa (PAO1) [3] (lung counts after 24 h) is recorded as “greater than four”.

Values taken from US12653832B2, “Methods for treating lung infections and inflammation” (BRIGHAM YOUNG UNIVERSITY, priority 2013, dated 2026).
